Values after ≈ are worked out from the molar mass of the structure shown. Non-standard residues stand in square brackets, D forms with d. Residues, ends and D or L forms follow the SMILES beside them. ξ: configuration not given here. ξLac(3-iPr) = CC(C)CC(O)C(=O)O; NMeV = CN[CH](C(=O)O)C(C)C; NMeA = CN[CH](C)C(=O)O; βAla = NCCC(=O)O
details: buffer; pH 7.4; 6.0 h; 150.0 µM

Row | Compound | solubility kinetic
1 | FC(F)(F)c1cccc(Sc2nc(-c3ccccc3)nnc2C(F)(F)F)c1 | < 1 µg/mL
2 | O=C(NCC1CCN(Cc2cccc(Cl)c2)CC1)Nc1ccc(F)c(Cl)c1 | 25.1 µg/mL (≈ 61.3 µM)
3 | COc1ccc(CNc2ccc(S(=O)(=O)Nc3nccs3)cc2)cc1O | 7.85 µg/mL (≈ 20.1 µM)
4 | CCC(C)C1NC(=O)C2CCCN2C(=O)C(CC(C)C)OC(=O)CCNC(=O)C(C)N(C)C(=O)C(C(C)C)N(C)C1=O (stereo not drawn) (cyclo([ξLac(3-iPr)]PI[NMeV][NMeA][βAla]); configuration not given here) | 2.68 µg/mL (≈ 4.52 µM)
5 | Oc1ccc(-c2nc(C3CC3)nc3c2CCN(Cc2ccc(F)cc2)CC3)cc1 | 8.86 µg/mL (≈ 22.8 µM)
6 | O=[S+]([O-])(Nc1nccs1)c1ccc(NCc2cc(F)cc(Cl)c2O)cc1 | 18.5 µg/mL (≈ 44.7 µM)
7 | O=C1Nc2cc(Cl)ccc2/C1=C\c1cc(Cl)c(O)c(Cl)c1 | 5.95 µg/mL (≈ 17.5 µM)
8 | CCN(CC)CCCC(C)Nc1cc(/C=C/c2ccccc2Cl)nc2cc(Cl)ccc12 (stereo not drawn) | 25.4 µg/mL (≈ 55.7 µM)
9 | O=C(Nc1ccc(Oc2ccnc3[nH]ccc23)c(F)c1)c1cccn(-c2ccc(F)cc2)c1=O | < 1 µg/mL
10 | Cc1ccc(C)c(CN2CCC(CNC(=O)Nc3ccc(Br)cc3F)CC2)c1 | 27.9 µg/mL (≈ 62.3 µM)
11 | Cc1cc(NS(=O)(=O)c2ccc3c(c2)CCC(=O)N3)ccc1F | > 49 µg/mL
12 | O=C1Nc2ccccc2C1Cc1cc(Cl)c(O)c(Cl)c1 (stereo not drawn) | > 45 µg/mL
13 | Fc1ccccc1-c1ccc(Nc2nc(-c3ccncc3)nc3ccccc23)cc1F | < 1 µg/mL
14 | CC(=O)c1ccc(N2CCN(S(=O)(=O)c3ccc4c(c3)CC(=O)N4)CC2)cc1 | 2.85 µg/mL (≈ 7.13 µM)
15 | O=C(Cc1nc2ccc(Cl)cc2[nH]1)Nc1ccc(S(=O)(=O)Nc2nccs2)cc1 | 4.93 µg/mL (≈ 11 µM)
16 | COc1cccc(CNc2ccc(S(=O)(=O)Nc3cccc(-c4ccccc4)c3)cc2)c1O | < 1 µg/mL
17 | Cc1cccc2c1NC(=O)/C2=C/c1cc(Cl)c(O)c(Cl)c1 | 10.1 µg/mL (≈ 31.5 µM)
18 | O=C1CCCC2=C1C1(CCSC1)N=C(Nc1nc3ccccc3o1)N2 (stereo not drawn) | < 1 µg/mL
19 | COc1ccc(-n2nc(C3CCCN(CC4CCCCC4)C3)[nH]c2=O)cc1 (stereo not drawn) | > 37 µg/mL
20 | CN(C)c1cccc(-c2nccc(N3CCC(C(N)=O)CC3)n2)c1 | > 48 µg/mL
21 | O=C1CCCC2=C1C(c1ccccc1C(F)(F)F)N=C(Nc1nc3ccccc3o1)N2 (stereo not drawn) | < 1 µg/mL

Row | Compound | solubility kinetic
22 | NC(=O)C(=O)N/N=C/c1ccc([N+](=O)[O-])o1 | > 33 µg/mL
23 | NC(=O)C1CCN(c2nc(-c3cccc(F)c3)cs2)CC1 | > 45 µg/mL
24 | COc1cc(C(=S)N2CCN(CCO)CC2)ccc1OCc1ccc(C)cc1 | 35.9 µg/mL (≈ 89.6 µM)
25 | C=Cc1ccc(Cn2c(C(=O)O)c(CNC3CCCCC3)c3ccc(OC)cc32)cc1 | < 1 µg/mL
26 | Cc1nn2c(c1-c1ccccc1-c1ccccc1)N(CC1CC1)CCC2 | 1.56 µg/mL (≈ 4.53 µM)
27 | O=C(NCc1ccc(N2CCCC2)nc1)c1cc(Cl)ccc1O | 1.3 µg/mL (≈ 3.93 µM)
28 | Cc1cccc(-n2c(C)cc(C=C(C#N)C#N)c2C)c1 | < 1 µg/mL
29 | CC(C)c1ccccc1-c1ncc(F)c(NCc2ccc(-n3ccnn3)cc2)n1 | 2.13 µg/mL (≈ 5.49 µM)
30 | NC(=O)C1CCN(c2nc(-c3ccccc3)cs2)CC1 | > 42 µg/mL
31 | Cn1cc(S(=O)(=O)N2CCCCCC2)cc1C(=O)Nc1ccc(Cl)c(C(F)(F)F)c1 | < 1 µg/mL
32 | COc1ccc(-c2ccc3ncc(Nc4cccnc4OC)n3n2)cn1 | 5.33 µg/mL (≈ 15.3 µM)
33 | COc1cc2c(cc1OCCCN1CCCC1)N=C(N)C21CCC1 | > 49 µg/mL
34 | Cc1cccc2nc(-c3cccnc3)c(Nc3ccc(C(C)C)cc3)n12 | < 1 µg/mL
35 | CCc1nnc(NC(=O)c2nc(S(=O)(=O)Cc3ccc(C)cc3)ncc2Cl)s1 | > 65 µg/mL
36 | CCC(=O)NC(c1cccs1)c1cc([N+](=O)[O-])c2cccnc2c1O (stereo not drawn) | > 53 µg/mL
37 | COc1nccc(-c2nc(Nc3ccc(F)c(F)c3)c3ccccc3n2)c1Cl | < 1 µg/mL
38 | Cl.c1ccc(Nc2nc(NCc3ccco3)c3ccccc3n2)cc1 | < 1 µg/mL
39 | CC(C)NC(=O)c1nc(-c2ccc(Cl)nc2)c2cnccn12 | 16.5 µg/mL (≈ 52.2 µM)
40 | Fc1ccc(-c2csc3ncnc(Sc4nnnn4C4CC4)c23)cc1 | 2.91 µg/mL (≈ 7.85 µM)
41 | COc1cccc(-c2nc(-c3cc4cc(OC)ccc4[nH]c3=O)no2)c1 | < 1 µg/mL
42 | O=[S+]([O-])(Nc1ccccc1)c1ccc(NCc2cccc(C(F)(F)F)c2Cl)cc1 | < 1 µg/mL

Row | Compound | solubility kinetic
43 | NC(=O)C1CCN(c2nc(-c3cccs3)cs2)CC1 | > 43 µg/mL
44 | Cc1ccc(S(=O)(=O)Nc2ccc(C(=O)Nc3nc(-c4ccc(Cl)cc4)cs3)cc2)cc1 | < 1 µg/mL
45 | CCOc1ccc(/C=C/c2nc3ccccc3n2S(=O)(=O)c2ccc(Br)cc2)cc1 | 0.131 µg/mL (≈ 0.271 µM)
46 | COC[C@@H]1CN(C(=O)c2n[nH]c3ccccc23)C[C@H]1c1nc(C)no1 | > 100 µg/mL
47 | Cc1nsc(N)c1C(=O)N(C)CCOc1ccccc1Cl | > 48 µg/mL
48 | COc1ccc(-n2nc(C3CCCN(C(=O)c4ccccc4F)C3)[nH]c2=O)cc1 (stereo not drawn) | 37.3 µg/mL (≈ 94.1 µM)
49 | CCOC(=O)c1ccc(N2C(=O)c3[nH]nc(-c4ccc(OC)cc4)c3C2c2ccc(C)cc2)cc1 (stereo not drawn) | < 1 µg/mL
50 | O=[S+]([O-])(Nc1ccc(N2CCNCC2)cc1)c1ccc(NCc2ccc(Cl)cc2O)cc1 | 25.2 µg/mL (≈ 53.3 µM)
51 | O=C(Nc1ccc(OC(F)(F)Cl)cc1)c1cnc(N2CC[C@@H](O)C2)c(-c2ccn[nH]2)c1 | 14.6 µg/mL (≈ 32.4 µM)
52 | Nc1nc(Nc2ccc(S(N)(=O)=O)cc2)n(C(=S)Nc2c(F)cccc2F)n1 | < 1 µg/mL
53 | CC(=O)N1CCN(c2ccc(OCc3nn(C)c(C)c3-c3cccc4c(CCCOc5cccc6ccccc56)c(C(=O)O)n(Cc5cccnc5)c34)cc2)CC1 | > 100 µg/mL
54 | CC1=C(C(=O)NC2CCCC2)C(c2nn(C)cc2Cl)N=C(Nc2nc3ccccc3o2)N1 (stereo not drawn) | 10 µg/mL (≈ 22 µM)
55 | COc1ccc(CNC(=O)c2cnc3ccccc3n2)cc1 | 36.1 µg/mL (≈ 123 µM)
56 | CCOc1cc(CNc2ccc(O)cc2)ccc1OCc1ccc(Cl)cc1 | 4.36 µg/mL (≈ 11.4 µM)
57 | COc1ccc(NS(=O)(=O)c2ccc(C)c(C(=O)Nc3ccc4oc(C)nc4c3)c2)cc1 | 8.77 µg/mL (≈ 19.4 µM)
58 | O=C(Nc1ccc(OC(F)(F)F)cc1)c1sccc1NCc1ccnc2ccccc12 | < 1 µg/mL
59 | CCCC1=Nc2cc(C(=O)NC3CCCCC3)ccc2Sc2ccc(C)cc21 | 1.37 µg/mL (≈ 3.48 µM)
60 | COc1ccnc(NC(=S)N2CCN(c3cccc(C(F)(F)F)c3)CC2)c1 | 13 µg/mL (≈ 32.7 µM)
61 | CC1Oc2cc3c(-c4c(O)cc(O)c5c(O)c6c(cc45)OC(C)C(C)C6=O)c(O)cc(O)c3c(O)c2C(=O)C1C (stereo not drawn) | 53.5 µg/mL (≈ 97.8 µM)

The next lines start with the values.

Row | solubility kinetic | Compound
62 | < 1 µg/mL | CC(=O)c1c(C)oc2ccc(N(C(=O)Oc3ccccc3)S(=O)(=O)c3ccccc3)cc12
63 | < 1 µg/mL | COC(=O)c1ccc(Nc2nc(-c3ccncc3)nc3ccccc23)cc1OC
64 | < 1 µg/mL | CC(=O)c1c(C)[nH]c(C(=O)Nc2cccc([S+](=O)([O-])Nc3ccccc3C)c2)c1C
65 | < 1 µg/mL | Cc1ccc2c(c1)N(S(=O)(=O)c1cc(-c3onc(C)c3C)ccc1C)CCO2
66 | > 60 µg/mL | Cc1cc(N[S+](=O)([O-])c2ccc(NC(=O)Cc3ccc(F)c(F)c3)cc2)no1
67 | 7.61 µg/mL (≈ 22.5 µM) | COC(=O)c1ccccc1C(=O)Nc1nc(-c2ccccc2)cs1
68 | 1.6 µg/mL (≈ 5.65 µM) | CCCc1ccc(C(=O)NC(=O)c2ccccc2O)cc1
69 | < 1 µg/mL | O=C(NCCCc1ccccc1)c1cccc(-c2cc(O)c3ncccc3c2)c1
70 | < 1 µg/mL | COc1cc(-c2nc(Nc3ccc(F)c(F)c3)c3ccccc3n2)ccn1
71 | 50.9 µg/mL (≈ 110 µM) | N#Cc1ccccc1S(=O)(=O)Nc1cnccc1C(=O)Nc1nc(-c2ccccc2)cs1
72 | < 1 µg/mL | Cc1sc(NC(=O)Cc2ccc3c(c2)OCO3)nc1-c1ccc2c(c1)CCN2C(=O)c1ccccc1
73 | < 1 µg/mL | Cc1cccc(OCC(=O)Nc2ccc3nc(Nc4cccc(Cl)c4)cc(C)c3c2)c1
74 | < 1 µg/mL | Fc1cccc(Nc2nc(-c3ccncc3)nc3ccccc23)c1F
75 | < 1 µg/mL | Fc1ccc(F)c(Nc2nc(-c3ccncc3)nc3ccccc23)c1
76 | 34.6 µg/mL (≈ 73.9 µM) | Cc1cc(F)ccc1S(=O)(=O)Nc1cnccc1C(=O)Nc1nc(-c2ccccc2)cs1
77 | < 1 µg/mL | O=C(Nc1cncc(Cc2ccccc2)c1)c1ccc(-c2cccc([N+](=O)[O-])c2)o1
78 | < 1 µg/mL | CCOc1ccc(CCN(C)C(=O)c2cc3sccc3n2Cc2ccccc2)cc1OCC
79 | < 1 µg/mL | O=C(CSc1ccccc1)Nc1nnc(COc2ccc(Cl)cc2)s1
80 | 15.6 µg/mL (≈ 35.8 µM) | O=C(Nc1ccc(S(=O)(=O)Nc2nccs2)cc1)c1ccnc(-c2ccccc2)c1

Row | solubility kinetic | Compound
81 | < 1 µg/mL | O=C(Nc1ncc(Cc2cccc(C(F)(F)F)c2)s1)c1ccc(-c2cccc([N+](=O)[O-])c2)o1
82 | < 1 µg/mL | CCc1cccc(NC(=O)C(Cc2ccccc2)NS(=O)(=O)c2cccs2)c1 (stereo not drawn)
83 | > 58 µg/mL | O=C(O)CCNc1cc(N2CCc3ccccc3CC2)nc(-c2cccnc2)n1
84 | 7.04 µg/mL (≈ 14.6 µM) | Cc1ccc(S(=O)(=O)Nc2ccccc2C(=O)Nc2nc(-c3ccc(Cl)cc3)cs2)cc1
85 | 0.167 µg/mL (≈ 0.356 µM) | Cc1ccc(S(=O)(=O)Nc2cnccc2C(=O)Nc2nc(-c3cccc(F)c3)cs2)cc1
86 | < 1 µg/mL | Cc1ccc(S(=O)(=O)Nc2cccc(C(=O)Nc3nc(-c4ccccc4)cs3)c2Cl)cc1
87 | < 1 µg/mL | Cc1ccc(S(=O)(=O)Nc2cc(C(=O)Nc3nc(-c4ccccc4)cs3)ccn2)cc1
88 | > 80 µg/mL | COc1ccccc1CN1CCNc2cc(Nc3ccccc3)ncc2C1
89 | 1.11 µg/mL (≈ 2.84 µM) | Cn1c(C(=O)NCCc2ccccn2)nc2nc(-c3ccccc3)c(Cl)cc21
90 | > 43 µg/mL | O=C(Cc1ccc(Cl)cc1)Nc1cnccc1C(=O)O
91 | < 1 µg/mL | CNC(=O)c1cccc(-c2cnc(Nc3cccc(C(F)(F)F)c3)c3c2CCO3)c1
92 | 49.8 µg/mL (≈ 105 µM) | O=C(Nc1nc(-c2ccccc2)cs1)c1ccncc1NS(=O)(=O)c1ccc(F)c(F)c1
93 | < 1 µg/mL | Cn1nc(-c2ccccc2F)c2cc(C(=O)Nc3cc(F)ccc3F)sc21
94 | < 1 µg/mL | Cc1ccc(-c2cc(C(=O)Nc3ccc(-n4cccn4)cc3)c3ccccc3n2)cc1C
95 | < 1 µg/mL | O=C(Nc1ncc(Cc2ccc(C(F)(F)F)cc2)s1)c1ccc(-c2ccccc2[N+](=O)[O-])o1
96 | 4.07 µg/mL (≈ 7.96 µM) | Cc1cccc(C(=O)N2CCc3cc(-c4nc(NC(=O)Cc5ccc6c(c5)OCO6)sc4C)ccc32)c1
97 | < 1 µg/mL | Cc1csc2nc(-c3cccc(NC(=O)c4cccc(F)c4)c3)cn12
98 | < 1 µg/mL | CCOc1ccc(S(=O)(=O)NCc2cccnc2)cc1NC(=O)c1ccccc1F

Reference: PubChem BioAssay AID1645848
